For this test, the target named is T1, proTNF-α convertase enzyme (TACE) (Homo sapiens, UniProt P78536).
T1 construct: a partially purified, isolated enzyme assay, the enzyme being obtained from the membranes of TBP-1; endogenous in cells
As to the kind of experiment: Isolated enzyme assay, proTNF-α convertase (TACE), fluorogenic peptide substrate. The format is biochemical. As to conditions: partially purified enzyme from membranes of TBP-1; 26° C. for 4 hours; read-out: concentration of compound that gave 50% inhibition of TACE. The protocol:
Recombinant human proMMP13 may be expressed and purified as described by Knauper et al. [V. Knauper et al., (1996) The Biochemical Journal 271:1544-1550 (1996)]. The purified enzyme can be used to monitor inhibitors of activity as follows: purified proMMP13 is activated using lmM amino phenyl mercuric […] (APMA), 20 hours at 21° C.; the activated MMP13 (11.25 ng per assay) is incubated for 4-5 hours at 35° C. in assay buffer (0.1M Tris-HCl, pH 7.5 containing 0.1M NaCl, 20 mM CaCl2, 0.02 mM ZnCl and 0.05% (w/v) Brij 35 using the synthetic substrate 7-methoxycoumarin-4-yl)acetyl.Pro.Leu.Gly.Leu.N-3-(2,4-dinitrophenyl)-L2,3-diaminopropionyl.Ala.Arg.NH2 in the presence or absence of inhibitors. Activity is determined by measuring the fluorescence at λex 328 nm and λem 393 nm. Percent inhibition is calculated as follows: % Inhibition is equal to the […].
The ability of the compounds to inhibit proTNF-α convertase enzyme (TACE) may be assessed using a partially purified, isolated enzyme assay, the enzyme being obtained from the membranes of TBP-1 as described by K. M. Mohler et al., (1994) Nature 370:218-220. […] The amount of inhibition is determined as for MMP13 except λex 485 nm and λem 538 nm were used. […]

T1 sequence (P78536 215-824): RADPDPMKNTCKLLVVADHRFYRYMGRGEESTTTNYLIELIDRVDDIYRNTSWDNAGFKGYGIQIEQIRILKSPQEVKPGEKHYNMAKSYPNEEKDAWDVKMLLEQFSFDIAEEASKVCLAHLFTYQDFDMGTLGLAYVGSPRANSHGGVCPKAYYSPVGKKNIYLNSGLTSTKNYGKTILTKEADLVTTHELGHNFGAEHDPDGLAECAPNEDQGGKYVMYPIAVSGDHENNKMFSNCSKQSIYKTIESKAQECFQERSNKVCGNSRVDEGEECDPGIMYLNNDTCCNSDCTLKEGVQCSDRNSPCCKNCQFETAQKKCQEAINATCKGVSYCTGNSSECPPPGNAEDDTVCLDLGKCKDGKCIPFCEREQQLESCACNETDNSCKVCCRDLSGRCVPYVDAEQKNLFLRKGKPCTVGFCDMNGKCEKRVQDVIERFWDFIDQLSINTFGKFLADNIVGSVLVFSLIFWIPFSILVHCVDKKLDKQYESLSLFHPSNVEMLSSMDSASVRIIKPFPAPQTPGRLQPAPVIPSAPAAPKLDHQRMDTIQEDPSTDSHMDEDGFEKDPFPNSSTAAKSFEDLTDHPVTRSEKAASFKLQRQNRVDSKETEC

For the molecule `Cc1cc(COc2ccc(C3(C)CCN(CC4(c5ccccc5)NC(=O)NC4=O)C3=O)cc2)c2ccccc2n1` (stereo not shown) [compound 6, 5-{3-Methyl-3-[4-(2-methylquinolin-4-ylmethoxy)phenyl]-2oxopyrrolidin-1-ylmethyl}-5-phenylimidazolidine-2,4-dione], the IC50 was found to be 130 nM.

The record behind these values is patent US20060063818A1, “Hydantoin derivatives and deren verwendung als tace inhibitoren” (priority 2002, published 2006).
